Results reported in patent US20140249139A1, “Quinazoline Derivatives” (NOVARTIS AG, priority 2011, published 2014).

Experiments:
[1] = tested on: murine B cells; assay: Murine B cell activation: CD86 expression on CD19 positive B cells after anti-IgM stimulation; type: cell-based; conditions: Balb/c mouse splenocytes, anti-IgM 30 μg/ml, 24 hours, read-out: mCD86/ IC50 CD86
Experimental: PI3Kδ has been recognized to modulate B cell function when cells are stimulated through the B cell receptor (BCR) (Okkenhaug et al. Science 297:1031 (2002). For assessing the inhibitory property of compounds on B cell activation, the upregulation of activation markers CD86 and CD69 on murine B cells derived from mouse spleen […] is measured after stimulation with anti-IgM. CD69 is a well known activation marker for B and T cells (Sancho et al. Trends Immunol. 26:136 (2005). CD86 (also known as B7-2) is primarily expressed on antigen-presenting cells, including B cells. Resting B cells express CD86 at low levels, but upregulate it following stimulation of e.g. the BCR or IL-4 receptor. CD86 on a B cell interacts with CD28 on T cells. This interaction is required for optimal T cell activation and for the generation of an optimal IgG1 response (Carreno et al. Annu Rev Immunol. 20:29 (2002)).
Spleens from Balb/c mice were collected, splenocytes were isolated and washed twice with RPMI containing 10% foetal bovine serum (FBS), 10 mM HEPES, 100 Units/ml penicilline/streptomycine. RPMI supplemented in this way is subsequently referred to as medium. The cells were adjusted to 2.5×10^6 cells/ml in medium and 200 μl cell suspension ([…]) were added to the appropriate wells of 96 well plates.
Then the cells were stimulated by adding 50 μl anti-IgM mAb in medium (final concentration: 30 μg/ml). After incubation for 24 hours at 37° C., the cells were stained with the following antibody cocktails: anti-mouse CD86-FITC, anti-mouse CD69-PerCP-Cy5.5, anti-mouse CD19-PerCP for the assessment of B cells, and anti-mouse CD3-FITC, anti-mouse CD69-PE for the assessment of T cells (2 μl of each antibody/well). After one hour at room temperature (RT) in the dark the cells were transferred to 96 Deepwell plates. The cells were washed once with 1 ml PBS containing 2% FBS and after re-suspension in 200 μl the samples were analyzed on a FACS Calibur flow cytometer. Lymphocytes were gated in the FSC/SSC dot plot according to size and granularity and further analyzed for expression of CD19, CD3 and activation markers (CD86, CD69). Data were calculated from dot blots as percentage of cells positively stained for activation markers within the CD19+ or CD3+ population using BD CellQest Software.
For assessing the inhibitory property of compounds, compounds were first dissolved and diluted in DMSO followed by a 1:50 dilution in medium. Splenocytes from Balb/c mice were isolated, re-suspended and transfered to 96 well plates as described above (200 μl/well). The diluted compounds or solvent were added to the plates (25 μl) and incubated at 37° C. for 1 hour. Then the cultures were stimulated with 25 μl anti-IgM mAb/well (final concentration 30 μg/ml) for 24 hours at 37° C. and stained with anti-mouse CD86-FITC and anti-mouse CD19-PerCP (2 μl of each antibody/well). CD86 expression on CD19 positive B cells was quantified by flow cytometry as described above.

[2] = biological target: T1, PI3K delta (Homo sapiens, UniProt O00329); assay: Enzymatic PI3K delta isoform inhibition (lipid kinase activity, Kinase-Glo); type: biochemical; conditions: enzymatic assay
T1 construct: for the full-length p110-d subunit are generated and fused by overlapping PCR; His tag (C); made in house; host or cells: baculovirus BV1060; Tn5 (Trichoplusia ni) or TiniPro insect cells
Method in brief: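 Reactions were started with ATP (2 μM solution) after the enzyme (10 nM solution) and phosphatidylinositol substrate (5 μg/ml solution) were added to the DMSO-dissolved compounds.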

T1 sequence (O00329 with tags, fused parts or gaps limits assumed, species assumed): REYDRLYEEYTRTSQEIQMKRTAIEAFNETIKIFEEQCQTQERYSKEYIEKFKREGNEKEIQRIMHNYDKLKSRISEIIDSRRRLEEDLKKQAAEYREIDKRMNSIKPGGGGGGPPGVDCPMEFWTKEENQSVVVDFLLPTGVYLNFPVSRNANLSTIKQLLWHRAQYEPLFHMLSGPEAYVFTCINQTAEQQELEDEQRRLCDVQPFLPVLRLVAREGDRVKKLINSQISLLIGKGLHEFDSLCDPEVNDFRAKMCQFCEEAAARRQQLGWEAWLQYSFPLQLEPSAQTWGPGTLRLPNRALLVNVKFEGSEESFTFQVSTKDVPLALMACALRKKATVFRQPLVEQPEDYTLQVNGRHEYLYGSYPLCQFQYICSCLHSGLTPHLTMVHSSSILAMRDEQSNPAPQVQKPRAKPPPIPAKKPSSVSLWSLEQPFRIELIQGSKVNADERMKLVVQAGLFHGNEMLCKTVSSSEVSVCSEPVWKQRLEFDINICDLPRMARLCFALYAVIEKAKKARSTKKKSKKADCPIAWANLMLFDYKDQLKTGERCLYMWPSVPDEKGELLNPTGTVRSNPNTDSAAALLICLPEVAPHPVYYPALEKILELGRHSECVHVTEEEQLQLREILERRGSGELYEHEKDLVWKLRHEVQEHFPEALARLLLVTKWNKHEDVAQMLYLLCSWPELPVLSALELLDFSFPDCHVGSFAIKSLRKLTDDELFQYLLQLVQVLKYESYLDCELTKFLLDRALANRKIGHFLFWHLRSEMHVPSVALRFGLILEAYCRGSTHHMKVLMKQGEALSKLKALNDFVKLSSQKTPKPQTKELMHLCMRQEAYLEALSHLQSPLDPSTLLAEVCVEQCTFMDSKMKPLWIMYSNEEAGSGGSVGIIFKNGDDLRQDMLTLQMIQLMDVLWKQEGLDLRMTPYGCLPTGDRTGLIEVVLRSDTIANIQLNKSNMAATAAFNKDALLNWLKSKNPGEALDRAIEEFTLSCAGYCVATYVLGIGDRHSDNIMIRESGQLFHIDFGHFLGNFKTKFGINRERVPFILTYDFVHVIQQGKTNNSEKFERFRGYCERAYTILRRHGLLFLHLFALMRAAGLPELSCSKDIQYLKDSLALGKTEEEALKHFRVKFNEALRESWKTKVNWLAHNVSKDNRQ

Structure (SMILES)	IC50 [1] [nM]	IC50 [2] [nM]
COc1ccc(-c2ccc3ncnc(-c4cc(F)cc(C(=O)N5CCN(C(C)=O)CC5)c4)c3c2)cn1 [Example 110, 1-(4-{3-Fluoro-5-[6-(6-methoxy-pyridin-3-yl)-quinazolin-4-yl]-benzoyl}-piperazin-1-yl)-ethanone]	155	8
COc1ncc(-c2ccc3ncnc(-c4cccc(C(=O)N5CCN(C)CC5)c4)c3c2)cn1 [Example 2]	69.5	9.5
COc1ccc(-c2ccc3ncnc(-c4cncc(C(=O)N5CCNC(C)(C)C5)c4)c3c2)cc1C(F)(F)F [Example 81, (3,3-Dimethyl-piperazin-1-yl)-{5-[6-(4-methoxy-3-trifluoromethyl-phenyl)-quinazolin-4-yl]-pyridin-3-yl}-methanone]	79	3.62
COc1ccc(-c2ccc3ncnc(-c4cccc(C(=O)N5C[C@@H]6C[C@H]5CN6C)c4)c3c2)cn1 [Example 91, {3-[6-(6-Methoxy-pyridin-3-yl)-quinazolin-4-yl]-phenyl}-((1S,4S)-5-methyl-2,5-diaza-bicyclo[2.2.1]hept-2-yl)-methanone]	44	< 3
COc1ccc(-c2ccc3ncnc(-c4cccc(C(=O)N5CCN(C(C)=O)CC5)c4)c3c2)cc1S(=O)(=O)N1CCCC1 [Example 7]	20.1	6
COc1ccc(-c2ccc3ncnc(-c4ccc(C)c(C(=O)N5CC6CC5CN6C)c4)c3c2)cn1 (centres unmarked) [Example 117]	101	9
CNc1ncc(-c2ccc3ncnc(-c4cncc(C(=O)N5CCN(C)CC5)c4)c3c2)cc1C [Example 75, {5-[6-(5-Methyl-6-methylamino-pyridin-3-yl)-quinazolin-4-yl]-pyridin-3-yl}-(4-methyl-piperazin-1-yl)-methanone]	54	12
